Laboratory results as given in ChEMBL document CHEMBL1146779, “Bridgehead-methyl analog of SC-53116 as a 5-HT4 agonist” (Bioorg Med Chem Lett, 2004).

Legend:
[1] = biological target: T1, 5-hydroxytryptamine receptor 4 (Rattus norvegicus, UniProt Q62758); test: Compound was tested for agonist activity at the 5-hydroxytryptamine 4 receptor in the rat tunica muscularis mucosae (TMM) assay; IN = Inactive; assay type: functional, tissue-based, Muscularis mucosa
[2] = biological target: Serotonin 3 (5-HT3) receptor; test: Compound was evaluated for 5-hydroxytryptamine 3 receptor binding; assay type: protein-complex assay
[3] = biological target: T2, Adrenergic receptor alpha-1 (Homo sapiens, UniProt P35348+P25100+P35368); test: Compound was evaluated for alpha-1 adrenergic receptor binding; assay type: protein assay
T2 sequence (P35348 whole entry): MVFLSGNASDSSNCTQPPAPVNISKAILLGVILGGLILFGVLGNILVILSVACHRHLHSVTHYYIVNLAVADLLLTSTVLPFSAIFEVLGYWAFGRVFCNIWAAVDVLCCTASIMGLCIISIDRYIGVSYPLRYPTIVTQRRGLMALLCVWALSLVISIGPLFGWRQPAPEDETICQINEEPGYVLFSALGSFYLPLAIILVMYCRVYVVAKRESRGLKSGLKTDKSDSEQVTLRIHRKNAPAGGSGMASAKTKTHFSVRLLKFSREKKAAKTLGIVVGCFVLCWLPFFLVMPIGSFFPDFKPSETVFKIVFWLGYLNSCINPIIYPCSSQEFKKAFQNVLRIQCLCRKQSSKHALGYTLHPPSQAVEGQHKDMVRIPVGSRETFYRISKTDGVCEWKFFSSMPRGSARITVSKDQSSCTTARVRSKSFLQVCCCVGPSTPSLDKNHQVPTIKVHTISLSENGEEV
T2 sequence (P25100 whole entry): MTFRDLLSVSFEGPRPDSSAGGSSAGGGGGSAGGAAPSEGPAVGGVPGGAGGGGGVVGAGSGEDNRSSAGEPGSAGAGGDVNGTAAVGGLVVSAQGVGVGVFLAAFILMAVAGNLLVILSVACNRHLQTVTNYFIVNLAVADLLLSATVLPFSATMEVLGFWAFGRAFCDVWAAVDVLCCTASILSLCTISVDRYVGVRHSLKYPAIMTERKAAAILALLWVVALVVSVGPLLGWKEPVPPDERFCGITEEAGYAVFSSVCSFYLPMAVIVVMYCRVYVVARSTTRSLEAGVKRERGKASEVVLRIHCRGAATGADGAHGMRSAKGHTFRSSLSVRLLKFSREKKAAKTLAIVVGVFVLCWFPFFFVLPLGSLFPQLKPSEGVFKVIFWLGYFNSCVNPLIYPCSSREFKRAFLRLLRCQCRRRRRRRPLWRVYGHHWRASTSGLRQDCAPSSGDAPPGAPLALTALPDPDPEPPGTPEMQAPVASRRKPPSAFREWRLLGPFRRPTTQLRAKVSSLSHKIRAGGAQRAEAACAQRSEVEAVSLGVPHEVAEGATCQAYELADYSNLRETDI
T2 sequence (P35368 whole entry): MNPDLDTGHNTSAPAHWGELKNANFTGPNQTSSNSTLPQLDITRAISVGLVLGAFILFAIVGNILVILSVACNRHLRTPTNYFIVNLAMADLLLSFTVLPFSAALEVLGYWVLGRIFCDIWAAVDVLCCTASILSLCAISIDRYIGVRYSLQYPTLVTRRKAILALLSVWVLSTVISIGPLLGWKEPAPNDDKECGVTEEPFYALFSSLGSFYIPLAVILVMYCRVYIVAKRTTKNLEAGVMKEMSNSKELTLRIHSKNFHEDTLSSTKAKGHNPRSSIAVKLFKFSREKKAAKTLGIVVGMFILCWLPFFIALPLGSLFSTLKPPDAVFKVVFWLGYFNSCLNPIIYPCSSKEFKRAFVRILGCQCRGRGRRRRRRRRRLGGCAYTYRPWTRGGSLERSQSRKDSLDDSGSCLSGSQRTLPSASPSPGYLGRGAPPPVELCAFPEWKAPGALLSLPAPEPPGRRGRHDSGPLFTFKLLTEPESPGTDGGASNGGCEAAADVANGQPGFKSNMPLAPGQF

D(1A) dopamine receptor = D(1A) dopamine receptor (Homo sapiens, UniProt P21728); test: Compound was evaluated for Dopamine receptor D1 binding
[4] = biological target: T3, Adrenergic receptor alpha-2 (Homo sapiens, UniProt P08913+P18825+P18089); test: Compound was evaluated for alpha-2 adrenergic receptor binding; assay type: protein assay
T3 sequence (P08913 whole entry): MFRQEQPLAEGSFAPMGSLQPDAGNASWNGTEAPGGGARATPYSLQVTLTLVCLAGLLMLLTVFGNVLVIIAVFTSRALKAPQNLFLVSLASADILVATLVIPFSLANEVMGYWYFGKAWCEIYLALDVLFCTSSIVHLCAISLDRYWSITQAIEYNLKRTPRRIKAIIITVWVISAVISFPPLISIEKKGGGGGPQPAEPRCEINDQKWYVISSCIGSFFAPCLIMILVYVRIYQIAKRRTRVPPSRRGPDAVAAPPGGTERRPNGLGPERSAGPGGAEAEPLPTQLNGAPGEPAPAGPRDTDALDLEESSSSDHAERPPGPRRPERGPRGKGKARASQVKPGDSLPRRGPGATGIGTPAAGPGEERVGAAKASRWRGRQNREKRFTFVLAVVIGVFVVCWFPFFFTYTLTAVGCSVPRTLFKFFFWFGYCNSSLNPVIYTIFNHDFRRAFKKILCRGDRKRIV
T3 sequence (P18825 whole entry): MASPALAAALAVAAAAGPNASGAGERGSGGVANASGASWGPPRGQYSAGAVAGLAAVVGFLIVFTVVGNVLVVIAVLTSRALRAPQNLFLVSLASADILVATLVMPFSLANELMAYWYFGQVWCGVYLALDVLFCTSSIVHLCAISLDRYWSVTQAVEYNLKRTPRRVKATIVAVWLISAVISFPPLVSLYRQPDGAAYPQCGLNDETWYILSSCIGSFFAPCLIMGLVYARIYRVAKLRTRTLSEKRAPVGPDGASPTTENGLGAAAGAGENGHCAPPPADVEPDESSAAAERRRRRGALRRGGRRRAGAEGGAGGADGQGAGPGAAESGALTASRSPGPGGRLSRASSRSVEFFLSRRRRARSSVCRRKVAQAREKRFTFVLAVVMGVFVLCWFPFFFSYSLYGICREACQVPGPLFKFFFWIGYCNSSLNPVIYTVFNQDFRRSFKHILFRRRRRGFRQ
T3 sequence (P18089 whole entry): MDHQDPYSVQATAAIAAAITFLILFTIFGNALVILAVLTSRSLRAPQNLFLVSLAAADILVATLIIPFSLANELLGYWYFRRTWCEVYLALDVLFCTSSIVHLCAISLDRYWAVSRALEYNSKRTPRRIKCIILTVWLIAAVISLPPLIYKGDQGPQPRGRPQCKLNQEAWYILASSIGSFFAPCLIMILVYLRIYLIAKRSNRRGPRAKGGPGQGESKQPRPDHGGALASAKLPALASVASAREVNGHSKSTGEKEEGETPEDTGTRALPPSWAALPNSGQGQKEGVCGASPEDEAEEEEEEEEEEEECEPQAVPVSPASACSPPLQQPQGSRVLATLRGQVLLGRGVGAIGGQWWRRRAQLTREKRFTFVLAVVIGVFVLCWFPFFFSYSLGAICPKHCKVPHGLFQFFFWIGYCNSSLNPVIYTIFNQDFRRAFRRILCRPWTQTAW

Adrenergic receptor beta = Adrenergic receptor beta (Homo sapiens, UniProt P08588+P07550+P13945); test: Compound was evaluated for Beta adrenergic receptor binding; assay type: protein assay
[5] = biological target: Serotonin 1 (5-HT1) receptor (Rattus norvegicus, UniProt P28564+P30940+P19327+P28565); test: Compound was evaluated for 5-hydroxytryptamine 1 receptor binding; assay type: protein assay
[6] = biological target: T1, 5-hydroxytryptamine receptor 4; test: Compound was tested for agonist activity at the 5-hydroxytryptamine 4 receptor in the rat tunica muscularis mucosae (TMM) assay; assay type: functional, tissue-based, Muscularis mucosa
[7] = biological target: T1, 5-hydroxytryptamine receptor 4; test: Tested for agonist activity at the 5-hydroxytryptamine 4 receptor in the rat tunica muscularis mucosae (TMM) assay of racemate mixture; assay type: functional
D(2) dopamine receptor = D(2) dopamine receptor (Homo sapiens, UniProt P14416); test: Compound was evaluated for Dopamine receptor D2 binding
[8] = biological target: Serotonin 2 (5-HT2) receptor (Homo sapiens, UniProt P41595+P28223+P28335); test: Compound was evaluated for 5-hydroxytryptamine 2 receptor binding; assay type: protein assay

T1 sequence (Q62758 whole entry): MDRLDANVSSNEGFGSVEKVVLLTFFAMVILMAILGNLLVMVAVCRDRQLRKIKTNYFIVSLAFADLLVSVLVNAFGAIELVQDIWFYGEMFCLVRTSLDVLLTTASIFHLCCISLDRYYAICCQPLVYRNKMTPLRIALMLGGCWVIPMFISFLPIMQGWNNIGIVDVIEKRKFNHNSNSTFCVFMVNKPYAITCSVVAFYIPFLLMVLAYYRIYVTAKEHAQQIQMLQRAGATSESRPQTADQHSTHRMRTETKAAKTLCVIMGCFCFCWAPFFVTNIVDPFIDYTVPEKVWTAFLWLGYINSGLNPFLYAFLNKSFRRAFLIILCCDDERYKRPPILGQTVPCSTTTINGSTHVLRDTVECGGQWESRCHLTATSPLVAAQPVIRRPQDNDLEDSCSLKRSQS
Chain of D(2) dopamine receptor (P14416 whole entry): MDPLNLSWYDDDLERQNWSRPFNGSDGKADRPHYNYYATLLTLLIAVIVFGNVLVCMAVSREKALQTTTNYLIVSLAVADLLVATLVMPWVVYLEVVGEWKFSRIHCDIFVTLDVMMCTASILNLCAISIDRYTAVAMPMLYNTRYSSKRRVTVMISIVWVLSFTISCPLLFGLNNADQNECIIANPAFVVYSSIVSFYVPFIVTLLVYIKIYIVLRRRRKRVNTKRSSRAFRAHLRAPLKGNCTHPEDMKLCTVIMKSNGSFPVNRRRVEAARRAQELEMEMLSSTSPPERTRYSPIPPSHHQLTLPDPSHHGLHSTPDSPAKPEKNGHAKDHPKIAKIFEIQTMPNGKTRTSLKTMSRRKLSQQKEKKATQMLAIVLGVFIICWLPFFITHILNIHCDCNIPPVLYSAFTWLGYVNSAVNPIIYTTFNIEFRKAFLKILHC
Chain of D(1A) dopamine receptor (P21728 whole entry): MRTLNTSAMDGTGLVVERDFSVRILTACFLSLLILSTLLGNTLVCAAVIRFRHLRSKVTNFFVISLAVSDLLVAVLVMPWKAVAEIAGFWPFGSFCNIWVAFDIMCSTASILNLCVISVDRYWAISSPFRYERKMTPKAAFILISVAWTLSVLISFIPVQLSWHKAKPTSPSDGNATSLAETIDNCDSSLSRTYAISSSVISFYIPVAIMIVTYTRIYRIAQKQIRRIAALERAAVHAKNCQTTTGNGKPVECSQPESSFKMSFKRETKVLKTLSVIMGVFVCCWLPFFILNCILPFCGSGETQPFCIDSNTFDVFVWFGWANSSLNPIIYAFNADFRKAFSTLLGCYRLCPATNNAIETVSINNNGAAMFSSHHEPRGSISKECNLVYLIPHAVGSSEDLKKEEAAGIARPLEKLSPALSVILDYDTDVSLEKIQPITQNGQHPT

EC50 [1] | Ki [2] | Ki [3] | Ki (D(1A) dopamine receptor) | Ki [4] | Ki (Adrenergic receptor beta) | Ki [5] | EC50 [6] | EC50 [7] | Ki (D(2) dopamine receptor) | Ki [8] | SMILES
Not Active | – | – | – | – | – | – | – | – | – | – | COc1cc(N)c(Cl)cc1C(=O)N[C@@H]1C2CC3CN(C2)CC31 (some centres not stated)
– | 0.152 µM | > 10 µM | > 10 µM | > 10 µM | > 10 µM | > 10 µM | 0.023 µM | 0.066 µM | > 10 µM | > 10 µM | COc1cc(N)c(Cl)cc1C(=O)NC[C@@H]1CCN2CCC[C@@H]12
– | – | – | – | – | – | – | 0.449 µM | – | – | – | COc1cc(N)c(Cl)cc1C(=O)NC[C@@H]1CCN2CCC[C@@]12C (racemic)
